pIC50: −log10 of the molar value.
How the values were obtained:
ACAT = assay: In vitro assay for the inhibition of ACAT activity; type: biochemical, rat; details: hepatic microsomes of cholesterol/cholic acid fed male CD rats, [14C]oleoyl-CoA incorporation
Description: (i) In vitro assay for the inhibition of ACAT activity
ACAT activity was determined as described By Ross et al by the incorporation of [^14 C]oleoyl-CoA into cholesterol [^14 C]oleate using hepatic microsomes as the source of both ACAT and cholesterol. Microsomes were prepared from the livers of male CD rats fed a 0.4% cholesterol/0.2% cholic acid diet 3.5 days before sacrifice. Various concentrations of a test compound were preincubated with a 0.5 mg/ml microsomal suspension and after 15 minutes a 50 μg aliquot was removed and incubated with 25 μM of [^14 C]-enriched oleoyl-CoA for 4 minutes. The reaction was terminated by the addition of 1 ml of ethanol and 4 ml of hexane. After shaking, the hexane layer was removed and evaporated to dryness. The hexane extract was then reconstituted in 150 μl of HPLC solvent and injected on to a B&J OD5 Reverse Phase C18 column using an isocratic mobile phase of acetonitrile: isopropanol:heptane (50:40:10) in 0.5% acetic acid at a flow rate of 1.0 ml/min. The product of the reaction, [^14 C]oleoyl cholesterol, was measured using a Flow One radiometric detector. The ACAT IC50 value for each compound was determined from a plot of % inhibition from control vs inhibitor concentration.

[1] = test system: cholesterol-cholic acid fed rats; assay: Determination of hypolipdemic activity in cholesterol-cholic acid fed rats; type: in vivo, rat; details: serum on fourth day
From the text: (ii) Determination of hypolipdemic activity in cholesterol-cholic acid fed rats
Male Sprague-Dawley rats (CD, Charles River) each weighing 200-300 g were used. Hypercholesterolemia was induced in the rats by administration of a diet enriched to 0.4% cholesterol, 0.2% cholic acid. Prior to the adminstration of the diet, blood samples were collected under halothane anesthesia by cardiac puncture to determine baseline lipid levels. The blood was allowed to clot and serum was obtained for the analysis of total cholesterol, dextran-precipitable lipoproteins cholesterol (VLDL+LDL) and total triglycerides. The rats were divided into groups so that each group had similar average baseline serum lipid levels. Five days after the initial blood sampling, administration of each test compound and the cholesterol-cholic acid-enriched diet was begun. Compounds to be tested by gavage were administered b.i.d. in either 0.5% methyl cellulose or 5% sodium bicarbonate a 9:00 a.m. and 3:00 p.m. for three days and at 9:00 a.m. on the fourth day. Compounds administered as part of the diet were dissolved in ethanol and sprayed on to the diet. The ethonol was allowed to evaporate and the diet given to the rats for three days. On the fourth day, blood samples were collected and the final serum lipid levels determined. All blood samplings were taken after a four-hour fast.

Row | SMILES | pIC50 (ACAT) | reduced LDL-cholestrol by ([1]; dose of 25 mg/kg) | reduced LDL-cholestrol by ([1]; dose of 50 mg/kg) | reduced LDL-cholestrol by ([1]; dose of 5 mg/kg) | reduced LDL-cholestrol by ([1]; dose of 0.5 mg/kg) | reduced LDL-cholestrol by ([1]; dose of 2 mg/kg)
1 | CCCCCCCN(Cc1ccc(OC(C)(C)C(=O)O)cc1)C(=O)Nc1ccc(OC)cc1OC [Synthetic Example 1, 2-(4-{[3-(2,4-dimethoxyphenyl)-1-heptylureido]methyl}phenoxy)-2-methylpropionic acid] | 5.35 | 55% | 67% | – | – | –
2 | CCCCCCCN(CCc1ccc(OC(C)(C)C(=O)O)cc1)C(=O)Nc1ccc(OC)cc1OC [Synthetic Example 2, 2-(4-{2-[3-(2,4-dimethoxyphenyl)-1-heptylureido]ethyl}phenoxy)-2-methylpropionic acid] | 5.47 | 61% | – | 41-71% | – | –
3 | CCCCCCCN(CCc1ccc(OC(C)(C)C(=O)O)cc1)C(=O)Nc1ccc(F)cc1F [Synthetic Example 3, 2-(4-{2-[3-(2,4-difluorophenyl)-1-heptylureido]ethyl}phenoxy)-2-methypropionic acid] | 5.12 | – | – | – | 90% | 74%

Source: US5658944A, “Anti-atherosclerotic aryl compounds” (The University of South Carolina, priority 1990, dated 1997)
